Results taken from US12692269B2, “Therapeutic compounds” (Genentech, Inc., priority 2019, dated 2026).
pEC50: −log10 of the molar value.

Tests used:
Assay type in all cases: binding
TEAD1 YAP50-100 = TEAD1 YAP50-100 (Homo sapiens, UniProt P28347); experiment: TEAD1-YAP HTRF (TR-FRET) protein-protein interaction assay; conditions: TEAD1, YAP peptide 50-100, HTRF; for pEC50: read-out: TEAD1 YAP50-100 HTRF combined: EC50
Procedure, shortened: (§1)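 Read-out is the TR-FRET 665 nm/615 nm ratio, which falls when compound disrupts TEAD binding to YAP (aa 50-100) or TAZ (aa 13-57) peptide. Eu anti-His-labelled His-TEAD (aa 217-447) saw compound for 30 min, then peptide/streptavidin-XL665 for 60 min, room temperature.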

TEAD2 YAP50-100 = TEAD2 YAP50-100 (Homo sapiens, UniProt Q15562); experiment: TEAD2-YAP HTRF (TR-FRET) protein-protein interaction assay; conditions: TEAD2, YAP peptide 50-100, HTRF; for pEC50: read-out: TEAD2 YAP50-100 HTRF combined: EC50
Procedure, shortened: as §1

TEAD3 YAP50-100 = TEAD3 YAP50-100 (Homo sapiens, UniProt Q99594); experiment: TEAD3-YAP HTRF (TR-FRET) protein-protein interaction assay; conditions: TEAD3, YAP peptide 50-100, HTRF; for pEC50: read-out: TEAD3 YAP50-100 HTRF combined: EC50
Procedure, shortened: as §1

TEAD4 YAP50-100 = TEAD4 YAP50-100 (Homo sapiens, UniProt Q15561); experiment: TEAD4-YAP HTRF (TR-FRET) protein-protein interaction assay; conditions: TEAD4, YAP peptide 50-100, HTRF; for pEC50: read-out: TEAD4 YAP50-100 HTRF combined: EC50
Procedure, shortened: as §1

[1] = target: TEAD1 TAZ (amino acids 13-57) (Homo sapiens, UniProt P28347); experiment: TEAD1-TAZ HTRF (TR-FRET) protein-protein interaction assay; conditions: for TEAD1 TAZ HTRF combined: Max % Inhibition: TEAD1, TAZ peptide; for pEC50: TEAD1-TAZ HTRF, TR-FRET 665 nm/615 nm, read-out: TEAD1 TAZ HTRF combined: EC50
Procedure, shortened: as §1

[2] = target: TEAD2 TAZ (amino acids 13-57) (Homo sapiens, UniProt Q15562); experiment: TEAD2-TAZ HTRF (TR-FRET) protein-protein interaction assay; conditions: for TEAD2 TAZ HTRF combined: Max % Inhibition: TEAD2, TAZ peptide; for pEC50: TEAD2-TAZ HTRF, TR-FRET 665 nm/615 nm, read-out: TEAD2 TAZ HTRF combined: EC50
Procedure, shortened: as §1

[3] = target: TEAD3 TAZ (amino acids 13-57) (Homo sapiens, UniProt Q99594); experiment: TEAD3-TAZ HTRF (TR-FRET) protein-protein interaction assay; conditions: for TEAD3 TAZ HTRF combined: Max % Inhibition: TEAD3, TAZ peptide; for pEC50: TEAD3-TAZ HTRF, TR-FRET 665 nm/615 nm, read-out: TEAD3 TAZ HTRF combined: EC50
Procedure, shortened: as §1

[4] = target: TEAD4 TAZ (amino acids 13-57) (Homo sapiens, UniProt Q15561); experiment: TEAD4-TAZ HTRF (TR-FRET) protein-protein interaction assay; conditions: for TEAD4 TAZ HTRF combined: Max % Inhibition: TEAD4, TAZ peptide; for pEC50: TEAD4-TAZ HTRF, TR-FRET 665 nm/615 nm, read-out: TEAD4 TAZ HTRF combined: EC50
Procedure, shortened: as §1

Sequence of TEAD3 YAP50-100 (Q99594 173-435 limits assumed): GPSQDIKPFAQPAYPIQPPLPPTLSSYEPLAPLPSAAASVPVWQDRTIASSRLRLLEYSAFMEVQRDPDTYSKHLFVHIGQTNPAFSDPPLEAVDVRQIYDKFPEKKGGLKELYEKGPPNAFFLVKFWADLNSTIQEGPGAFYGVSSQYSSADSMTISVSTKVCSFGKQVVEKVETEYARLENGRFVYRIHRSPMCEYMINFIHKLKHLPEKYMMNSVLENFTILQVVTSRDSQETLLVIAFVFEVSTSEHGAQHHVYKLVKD
Sequence of TEAD3 TAZ (amino acids 13-57) (Q99594 173-435 limits assumed): as above
Sequence of TEAD4 TAZ (amino acids 13-57) (Q15561 217-434 limits assumed): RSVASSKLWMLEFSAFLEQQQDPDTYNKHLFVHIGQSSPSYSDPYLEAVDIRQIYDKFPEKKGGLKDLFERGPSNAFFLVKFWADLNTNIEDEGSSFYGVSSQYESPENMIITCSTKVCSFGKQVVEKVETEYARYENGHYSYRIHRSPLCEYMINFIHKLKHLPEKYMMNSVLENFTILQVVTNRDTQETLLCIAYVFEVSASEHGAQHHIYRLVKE
Sequence of TEAD4 YAP50-100 (Q15561 217-434 limits assumed): as above
Sequence of TEAD1 YAP50-100 (P28347 167-426 limits assumed): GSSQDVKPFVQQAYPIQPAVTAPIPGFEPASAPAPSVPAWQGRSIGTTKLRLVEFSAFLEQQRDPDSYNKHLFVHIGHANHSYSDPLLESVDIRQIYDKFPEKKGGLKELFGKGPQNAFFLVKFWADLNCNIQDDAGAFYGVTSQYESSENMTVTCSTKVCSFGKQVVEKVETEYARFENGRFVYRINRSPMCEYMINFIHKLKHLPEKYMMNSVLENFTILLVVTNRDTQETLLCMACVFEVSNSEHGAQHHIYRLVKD
Sequence of TEAD1 TAZ (amino acids 13-57) (P28347 167-426 limits assumed): as above
Sequence of TEAD2 TAZ (amino acids 13-57) (Q15562 217-447): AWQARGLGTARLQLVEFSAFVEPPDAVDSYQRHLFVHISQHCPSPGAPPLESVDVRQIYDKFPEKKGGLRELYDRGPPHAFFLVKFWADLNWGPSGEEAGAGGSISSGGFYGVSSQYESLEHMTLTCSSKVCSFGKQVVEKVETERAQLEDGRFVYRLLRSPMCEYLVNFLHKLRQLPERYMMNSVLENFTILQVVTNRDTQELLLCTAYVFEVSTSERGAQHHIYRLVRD
Sequence of TEAD2 YAP50-100 (Q15562 217-447): as above

| Compound | TEAD1 YAP50-100 HTRF combined: Max % Inhibition (TEAD1 YAP50-100) [%] | pEC50 (TEAD1 YAP50-100) | TEAD2 YAP50-100 HTRF combined: Max % Inhibition (TEAD2 YAP50-100) [%] | pEC50 (TEAD2 YAP50-100) | TEAD3 YAP50-100 HTRF combined: Max % Inhibition (TEAD3 YAP50-100) [%] | pEC50 (TEAD3 YAP50-100) | TEAD4 YAP50-100 HTRF combined: Max % Inhibition (TEAD4 YAP50-100) [%] | pEC50 (TEAD4 YAP50-100) | TEAD1 TAZ HTRF combined: Max % Inhibition [1] [%] | pEC50 [1] | TEAD2 TAZ HTRF combined: Max % Inhibition [2] [%] | pEC50 [2] | TEAD3 TAZ HTRF combined: Max % Inhibition [3] [%] | pEC50 [3] | TEAD4 TAZ HTRF combined: Max % Inhibition [4] [%] | pEC50 [4] |
| --- | --- | --- | --- | --- | --- | --- | --- | --- | --- | --- | --- | --- | --- | --- | --- | --- |
| Cn1cnc(-c2nn3c(=O)cc(-c4ccc(C5CCCCC5)cc4)[nH]c3c2C(=O)N2CC(CF)C2)c1 [Compound 32, 5-(4-Cyclohexylphenyl)-3-(3-(fluoromethyl)azetidine-1-carbonyl)-2-(1-methyl-1H-imidazol-4-yl)pyrazolo[1,5-a]pyrimidin-7(4H)-one] | 65.0 | 7.30 | 61.5 | 8.00 | 61.0 | 7.22 | 38.5 | 6.42 | 59.5 | 7.30 | 59.0 | 8.00 | 49.5 | 7.22 | 31.0 | 6.54 |
| O=C(c1c(-c2ncccn2)nn2c(=O)cc(-c3ccc(C4(C5CCCC5)CC4)cc3)[nH]c12)N1CC(CF)C1 [Compound 57, 5-(4-(1-Cyclopentylcyclopropyl)phenyl)-3-(3-(fluoromethyl)azetidine-1-carbonyl)-2-(pyrimidin-2-yl)pyrazolo[1,5-a]pyrimidin-7(4H)-one] | 56.0 | 7.10 | 51.0 | 7.70 | 53.0 | 7.00 | 35.0 | 7.15 | 46.5 | 7.15 | 53.5 | 8.00 | 50.5 | 7.05 | 54.5 | 7.22 |
| Cc1nccnc1-c1nn2c(=O)cc(-c3ccc(C4CCCCC4)cc3)[nH]c2c1C(=O)N1C[C@H](CF)[C@@H]1C (single isomer, unassigned) [Isomer B, Example 41] | 80.0 | 7.10 | 77.8 | 7.70 | 80.2 | 6.92 | 57.2 | 7.52 | 71.0 | 7.15 | 74.4 | 7.70 | 73.8 | 6.85 | 57.0 | 7.52 |
| Cc1nccnc1-c1nn2c(=O)cc(-c3ccc(C4(F)CCCCC4)cc3)[nH]c2c1C(=O)N1CC(CF)C1 [Compound 59, 5-(4-(1-Fluorocyclohexyl)phenyl)-3-(3-(fluoromethyl)azetidine-1-carbonyl)-2-(3-methylpyrazin-2-yl)pyrazolo[1,5-a]pyrimidin-7(4H)-one] | 68.0 | 6.80 | 61.5 | 7.52 | 65.5 | 6.54 | 40.0 | 6.74 | 65.5 | 6.80 | 61.0 | 7.52 | 59.0 | 6.47 | 42.5 | 6.74 |
| Cc1nccnc1-c1nn2c(=O)cc(-c3ccc(C4CCCCC4)c(F)c3)[nH]c2c1C(=O)N1CC(CF)C1 [Compound 21, 5-(4-cyclohexyl-3-fluorophenyl)-3-(3-(fluoromethyl)azetidine-1-carbonyl)-2-(3-methylpyrazin-2-yl)pyrazolo[1,5-a]pyrimidin-7(4H)-one] | 74.0 | 7.40 | 62.5 | 8.00 | 69.5 | 7.10 | 49.5 | 7.52 | 71.5 | 7.40 | 61.5 | 8.00 | 69.5 | 7.05 | 51.0 | 7.52 |
| Cc1nccnc1-c1nn2c(=O)cc(-c3ccc(OC(c4ccccc4)C(F)(F)F)cc3)[nH]c2c1C(=O)N1C[C@H](CF)[C@@H]1C (single isomer, unassigned) [Final product obtained using Enantiomer B from Step 1, Example 56] | 66.0 | 6.37 | 83.5 | 7.10 | 71.0 | 6.08 | 59.5 | 5.55 | 60.5 | 6.44 | 77.0 | 7.15 | 68.0 | 6.03 | 53.0 | 5.68 |
| CCn1cnc(-c2nn3c(=O)cc(-c4ccc(C5CCCCC5)cc4)[nH]c3c2C(=O)N2CC(CF)C2)c1 [Compound 31, 5-(4-Cyclohexylphenyl)-2-(1-ethyl-1H-imidazol-4-yl)-3-(3-(fluoromethyl)azetidine-1-carbonyl)pyrazolo[1,5-a]pyrimidin-7(4H)-one] | 65.0 | 7.10 | 62.0 | 7.70 | 59.0 | 6.77 | 36.0 | 6.11 | 60.5 | 6.92 | 60.5 | 7.70 | 49.5 | 6.68 | 32.0 | 6.21 |
